Usually logP stands for the decadic logarithm of the partition coefficient of the neutral form, usually between octanol and water.

The record followed here is patent US7186831B2, “5-halo-2-alkyl[1,2,4]triazolo[1,5-a]pyrimidin-7-amines” (priority 2001, dated 2007).

The data set is described as follows: log P by HPLC. The data set is classed as physicochemical. The settings on record: HPLC, gradient method, acetonitrile/0.1% aqueous phosphoric acid; EEC directive 79/831 Annex V. A8.
With `CCOC(=O)CN(C)c1c(-c2c(F)cc(F)cc2F)c(Cl)nc2nc(C)nn12` [compound 150], the logP was determined as 2.8. In the case of `Cc1nc2nc(Cl)c(-c3c(F)cc(F)cc3F)c(N(C)CC3OCCO3)n2n1` [compound 151], the logP came to 2.67. `C=CCN(C)c1c(-c2c(F)cc(F)cc2F)c(Cl)nc2nc(C)nn12` [compound 152] registered a log partition coefficient (logP) of 3.18. As for `Cc1nc2nc(Cl)c(-c3c(F)cc(F)cc3F)c(N(C)Cc3ccco3)n2n1` [compound 153], the logP was 3.22. `Cc1nc2nc(Cl)c(-c3c(F)cc(F)cc3F)c(N(C)CC(C)C)n2n1` [compound 154]: the logP is 3.63. To `C=C(C)CN(C)c1c(-c2c(F)cc(F)cc2F)c(Cl)nc2nc(C)nn12` [compound 155] belongs 3.55; to `CCN(CCN(C)C)c1c(-c2c(F)cc(F)cc2F)c(Cl)nc2nc(C)nn12` [compound 156], 1.59. For `C=CCN(CC)c1c(-c2c(F)cc(F)cc2F)c(Cl)nc2nc(C)nn12` [compound 157], the logP stood at 3.5. To `CCN(Cc1ccco1)c1c(-c2c(F)cc(F)cc2F)c(Cl)nc2nc(C)nn12` [compound 158] belongs 3.55. The same measure for `CCN(CC1CCCO1)c1c(-c2c(F)cc(F)cc2F)c(Cl)nc2nc(C)nn12` (stereo not shown) [compound 159]: 3.26; for `CCOC(=O)CN(CC)c1c(-c2c(F)cc(F)cc2F)c(Cl)nc2nc(C)nn12` [compound 160]: 3.14. The same measure for `CCCCN(CC)c1c(-c2c(F)cc(F)cc2F)c(Cl)nc2nc(C)nn12` [compound 161]: 4.08; for `CCCN(CC1CC1)c1c(-c2c(F)cc(F)cc2F)c(Cl)nc2nc(C)nn12` [compound 162]: 4.08. The molecule `CCCN(CC1CCCO1)c1c(-c2c(F)cc(F)cc2F)c(Cl)nc2nc(C)nn12` (stereo not shown) [compound 163] registered a lipophilicity (logP) of 3.68. For `Cc1nc2nc(Cl)c(-c3c(F)cc(F)cc3F)c(N3CCCCC3C)n2n1` (stereo not shown) [compound 164], the logP is given as 3.81. To `Cc1nc2nc(Cl)c(-c3c(F)cc(F)cc3F)c(N3CCCC(C)C3)n2n1` (stereo not shown) [compound 165] belongs 3.9. To `Cc1nc2nc(Cl)c(-c3c(F)cc(F)cc3F)c(N3CCC(C)CC3)n2n1` [compound 166] belongs 3.9; to `Cc1nc2nc(Cl)c(-c3c(F)cc(F)cc3F)c(N3CCC(F)CC3)n2n1` [compound 167], 3.03; to `Cc1nc2nc(Cl)c(-c3c(F)cc(F)cc3F)c(N3Cc4ccccc4CO3)n2n1` [compound 168], 3.73. The same measure for `Cc1nc2nc(Cl)c(-c3c(F)cccc3F)c(N3CC(C)OC(C)C3)n2n1` (stereo not shown) [compound 169]: 2.84; for `Cc1nc2nc(Cl)c(-c3c(F)cccc3F)c(N3CCCC3)n2n1` [compound 170]: 2.61; for `Cc1nc2nc(Cl)c(-c3c(F)cccc3F)c(N3CCCCC3)n2n1` [compound 171]: 3.17. `CCCNc1c(-c2c(F)cccc2F)c(Cl)nc2nc(C)nn12` [compound 172] yielded a logP of 2.52. The same measure for `Cc1nc2nc(Cl)c(-c3c(F)cccc3F)c(NC3CCCC3)n2n1` [compound 173]: 2.97.

Molecule `Cc1nc2nc(Cl)c(-c3c(F)cccc3F)c(NC(C)C)n2n1` [compound 174] gave a log partition coefficient (logP) of 2.52. `CCN(CC)c1c(-c2c(F)cccc2F)c(Cl)nc2nc(C)nn12` [compound 175] registered a lipophilicity (logP) of 2.98. To `Cc1nc2nc(Cl)c(-c3c(F)cccc3F)c(N3CCOCC3)n2n1` [compound 176] belongs 2.2; to `COCCNc1c(-c2c(F)cccc2F)c(Cl)nc2nc(C)nn12` [compound 177], 2.12.

In turn, `Cc1nc2nc(Cl)c(-c3c(F)cccc3F)c(NC3CC3)n2n1` [compound 178] displayed a lipophilicity (logP) of 2.28.

`Cc1nc2nc(Cl)c(-c3c(F)cccc3F)c(N3CCSCC3)n2n1` [compound 179] came in with a lipophilicity (logP) of 2.84. On to `Cc1nc2nc(Cl)c(-c3c(F)cccc3F)c(N3CCC(C(F)(F)F)CC3)n2n1` [compound 180], for which the log partition coefficient (logP) is listed as 3.36.

In turn, `Cc1nc2nc(Cl)c(-c3c(F)cccc3F)c(NCC3CC3)n2n1` [compound 181] came in with a log partition coefficient (logP) of 2.62. With `Cc1nc2nc(Cl)c(-c3c(F)cccc3F)c(NC(C)C(F)(F)F)n2n1` (stereo not shown) [compound 182], the logP came out at 2.78. To `C=C(C)CNc1c(-c2c(F)cccc2F)c(Cl)nc2nc(C)nn12` [compound 183] belongs 2.56; to `Cc1nc2nc(Cl)c(-c3c(F)cccc3F)c(NCCC(F)(F)F)n2n1` [compound 184], 2.63; to `Cc1nc2nc(Cl)c(-c3c(F)cccc3F)c(NC(C)C3CCCCC3)n2n1` (stereo not shown) [compound 185], 4. In turn, `Cc1nc2nc(Cl)c(-c3c(F)cccc3F)c(NC3CCCCC3)n2n1` [compound 186] gave a logP of 3.28. The same measure for `CCC(C)Nc1c(-c2c(F)cccc2F)c(Cl)nc2nc(C)nn12` (stereo not shown) [compound 187]: 2.82; for `Cc1nc2nc(Cl)c(-c3c(F)cccc3F)c(NC3CCCC(C(F)(F)F)C3)n2n1` (stereo not shown) [compound 188]: 3.37; for `Cc1nc2nc(Cl)c(-c3c(F)cccc3F)c(NC3CC(C(F)(F)F)CC(C(F)(F)F)C3)n2n1` (stereo not shown) [compound 189]: 3.62. The molecule `Cc1nc2nc(Cl)c(-c3c(F)cccc3F)c(NC3CCC(C(F)(F)F)CC3)n2n1` (stereo not shown) [compound 190] registered a lipophilicity (logP) of 3.39. The same measure for `Cc1nc2nc(Cl)c(-c3ccc(F)cc3F)c(NCC(C)C)n2n1` [compound 191]: 3; for `CCCCNc1c(-c2ccc(F)cc2F)c(Cl)nc2nc(C)nn12` [compound 192]: 3.04; for `Cc1nc2nc(Cl)c(-c3ccc(F)cc3F)c(NCC(C)(C)C)n2n1` [compound 193]: 3.4.

In turn, `CCC(C)Nc1c(-c2ccc(F)cc2F)c(Cl)nc2nc(C)nn12` (stereo not shown) [compound 194] yielded a lipophilicity (logP) of 3.01. The same measure for `Cc1nc2nc(Cl)c(-c3ccc(F)cc3F)c(NCCC(F)(F)F)n2n1` [compound 195]: 2.76; for `Cc1nc2nc(Cl)c(-c3ccc(F)cc3F)c(NC(C)C)n2n1` [compound 196]: 2.69. To `Cc1nc2nc(Cl)c(-c3ccc(F)cc3F)c(NC3CCCCC3)n2n1` [compound 197] belongs 3.46. To `Cc1nc2nc(Cl)c(-c3ccc(F)cc3F)c(NC(C)C3CCCCC3)n2n1` (stereo not shown) [compound 198] belongs 4.24. `Cc1nc2nc(Cl)c(-c3ccc(F)cc3F)c(NC3CC3)n2n1` [compound 199] returned a logP of 2.45.

`Cc1nc2nc(Cl)c(-c3ccc(F)cc3F)c(NCC3CC3)n2n1` [compound 200] registered a log partition coefficient (logP) of 2.77. To `C=C(C)CNc1c(-c2ccc(F)cc2F)c(Cl)nc2nc(C)nn12` [compound 201] belongs 2.72; to `Cc1nc2nc(Cl)c(-c3ccc(F)cc3F)c(N(C)CC3OCCO3)n2n1` [compound 202], 2.56. The same measure for `C=CCN(C)c1c(-c2ccc(F)cc2F)c(Cl)nc2nc(C)nn12` [compound 203]: 3.06.

`Cc1nc2nc(Cl)c(-c3ccc(F)cc3F)c(N(C)Cc3ccco3)n2n1` [compound 204] displayed a logP of 3.1.
